# Assays:
# [1] = Stability test of free base, crystal form A and crystal form C (content and related substance); type: physicochemical
# Description: The crystal form and purity change were measured respectively on 3rd and 7th day. The results are shown in Table 6, FIGS. 22, 23, 24 and 25. […]
# [2] = Solubility test at room temperature; type: physicochemical
# Description: The solubility of the crystal form A, the crystal form C and the free base in 0.1 M HCL, pH 4.5, or pH 6.8 buffer or water was tested at room temperature. In the test, the standard curves of the crystal form A, the crystal form C and the free base were plotted respectively. Subsequently, a appropriate amount of the crystal form A, the crystal form C and the free base was weighed respectively, to which was added a appropriate amount of solvent. The mixture was shaken at room temperature for 24 h, centrifuged. The supernatant was taken and the solubility was determined. The results are shown in Table 7, (the concentration unit is mg/mi).
# [3] = 5° C., 0 d (control), listed as From A
# [4] = 40° C./75% RH, 3 d, listed as From A
# [5] = 40° C./75% RH, 7 d, listed as From A
# [6] = 0.1M HCL, room temperature, shaken 24 h
# [7] = H2O, room temperature, shaken 24 h
# [8] = pH 4.5 buffer, room temperature, shaken 24 h
# [9] = pH 6.8 buffer, room temperature, shaken 24 h
# [10] = 40° C./75% RH, 3 d, listed as From C
# [11] = 40° C./75% RH, 7 d, listed as From C
compound,measurement,setting,value
C[C@@]12CCCCC[C@@H](Cc3ccc(OC(=O)NC4COC4)cc31)[C@@H]2N [Form A],character,"[1]; 5° C., 0 d (control)",off-white solid
same,Area (%),[1]; [3],99.82%
same,Total impurity (%),[1]; [3],0.18%
same,RRT(%) 1.25 (related substance),"[1]; 5° C., 0 d, — = below detection limit",0.18%
same,RRT(%) 1.25 (related substance),"[1]; 40° C./75% RH, 3 d",0.14%
same,character,"[1]; 40° C./75% RH, 3 d",off-white solid
same,Area (%),[1]; [4],99.47%
same,RRT(%) 0.81 (related substance),[1]; [4],0.39%
same,Total impurity (%),[1]; [4],0.53%
same,RRT(%) 1.25 (related substance),"[1]; 40° C./75% RH, 7 d",0.17%
same,character,"[1]; 40° C./75% RH, 7 d",off-white solid
same,Area (%),[1]; [5],99.28%
same,RRT(%) 0.81 (related substance),[1]; [5],0.54%
same,Total impurity (%),[1]; [5],0.72%
same,RRT(%) 1.25 (related substance),"[1]; 60° C., 3 d",0.20%
same,character,"[1]; 60° C., 3 d",off-white solid
same,Area (%),"[1]; 60° C., 3 d, listed as From A",99.68%
same,RRT(%) 0.81 (related substance),"[1]; 60° C., 3 d, listed as From A",0.12%
same,Total impurity (%),"[1]; 60° C., 3 d, listed as From A",0.32%
same,RRT(%) 1.25 (related substance),"[1]; 60° C., 7 d",0.30%
same,character,"[1]; 60° C., 7 d",off-white solid
same,Area (%),"[1]; 60° C., 7 d, listed as From A",99.58%
same,RRT(%) 0.81 (related substance),"[1]; 60° C., 7 d, listed as From A",0.11%
same,Total impurity (%),"[1]; 60° C., 7 d, listed as From A",0.42%
same,Final pH,[2]; [6],0.91
same,phenomenon,[2]; [6],Flocculent
same,solubility at 24 h,"[2]; 0.1 M HCl, simulated gastric fluid, thermodynamic from solid, room temperature, shaken 24 h",17.8 mg/mL
same,Final pH,[2]; [7],3.86
same,phenomenon,[2]; [7],Flocculent
same,solubility,[2]; [7],8.25 mg/mL
same,Final pH,[2]; [8],3.92
same,phenomenon,[2]; [8],clarified
same,solubility,[2]; [8],≥8.36 mg/mL
same,Final pH,[2]; [9],5.86
same,phenomenon,[2]; [9],clarified
same,solubility,[2]; [9],≥11.03 mg/mL
C[C@@]12CCCCC[C@@H](Cc3ccc(OC(=O)NC4COC4)cc31)[C@@H]2N [Form C],character,"[1]; 5° C., 0 d (control)",off-white solid
same,Area (%),"[1]; 5° C., 0 d (control), listed as From C",100.00%
same,RRT(%) 0.70 (related substance),"[1]; 40° C./75% RH, 3 d",3.60%
same,RRT(%) 1.14 (related substance),"[1]; 40° C./75% RH, 3 d",0.93%
same,character,"[1]; 40° C./75% RH, 3 d",off-white solid
same,Area (%),[1]; [10],94.92%
same,RRT(%) 0.81 (related substance),[1]; [10],0.54%
same,Total impurity (%),[1]; [10],5.08%
same,RRT(%) 0.70 (related substance),"[1]; 40° C./75% RH, 7 d",3.04%
same,RRT(%) 1.14 (related substance),"[1]; 40° C./75% RH, 7 d",0.92%
same,character,"[1]; 40° C./75% RH, 7 d",off-white solid
same,Area (%),[1]; [11],95.19%
same,RRT(%) 0.81 (related substance),[1]; [11],0.85%
same,Total impurity (%),[1]; [11],4.81%
same,RRT(%) 0.70 (related substance),"[1]; 60° C., 3 d",3.68%
same,RRT(%) 1.14 (related substance),"[1]; 60° C., 3 d",1.44%
same,character,"[1]; 60° C., 3 d",off-white solid
same,Area (%),"[1]; 60° C., 3 d, listed as From C",94.64%
same,RRT(%) 0.81 (related substance),"[1]; 60° C., 3 d, listed as From C",0.24%
same,Total impurity (%),"[1]; 60° C., 3 d, listed as From C",5.36%
same,RRT(%) 0.70 (related substance),"[1]; 60° C., 7 d",3.60%
same,RRT(%) 1.14 (related substance),"[1]; 60° C., 7 d",1.52%
same,character,"[1]; 60° C., 7 d",off-white solid
same,Area (%),"[1]; 60° C., 7 d, listed as From C",94.62%
same,RRT(%) 0.81 (related substance),"[1]; 60° C., 7 d, listed as From C",0.26%
same,Total impurity (%),"[1]; 60° C., 7 d, listed as From C",5.38%
same,Final pH,[2]; [6],1.53
same,phenomenon,[2]; [6],clarified
same,solubility,[2]; [6],≥33.87 mg/mL
same,Final pH,[2]; [7],3.45
same,phenomenon,[2]; [7],clarified
same,solubility,[2]; [7],≥26.05 mg/mL
same,solubility compared to the free base (in words),"[2]; pH 4.5, pH 6.8, or 0.1 M HCL",increased significantly
same,Final pH,[2]; [8],3.47
same,phenomenon,[2]; [8],clarified
same,solubility,[2]; [8],≥25.50 mg/mL
same,Final pH,[2]; [9],3.84
same,phenomenon,[2]; [9],clarified
same,solubility,[2]; [9],≥26.11 mg/mL
